{"source": "paper PMC6900016", "about": "“Synthesis of Indomorphan Pseudo‐Natural Product Inhibitors of Glucose Transporters GLUT‐1 and ‐3” (Angewandte Chemie (International Ed. in English), 2019)", "assay_in_all_cases": "cells", "set-up_in_all_cases": "Cell growth inhibition, sulforhodamine B total protein staining", "key": {"[1]": {"test_system": "22RV1", "conditions": "Homo sapiens, 22Rv1; 72 h growth; read-out: Cell growth inhibition IC50/µM", "method": "(§1) Cell panel profiling A panel of 94 cell lines was exposed to Glupin for 72 h to assess the influence on cell growth (Oncolead, Germany). Cell growth was determined using sulforhodamine B assay. Measurements were performed using a total protein staining protocol. Briefly, after treatement cells were fixed addition of 10% TCA (for adherent growing cells) or 50% TCA (for semi-adherent growing cells or cells growing in suspension). After an incubation at 4°C for 1 h, plates were washed twice with 400 μl of deionized water and dried. Cells were then stained with 100 μl of 0.04% wt/v sulforhodamine B. Plates were incubated at room temperature for at least 30 min and washed six times with 1% acetic acid to remove unbound stain. […] This effect was much stronger at a physiological glucose concentration (5 mM; Figure 5 b,c). […] IC50 values lower than 300 nM were obtained for more than 20 cell lines, whereas 24 cell lines were not affected by the compound, among them the peripheral blood mononuclear control cells (PBMCs). Sensitivity to Glupin was detected across various tissue types (Table S6)."}, "[2]": {"test_system": "A2780", "conditions": "Homo sapiens, A2780; 72 h growth; read-out: Cell growth inhibition IC50/µM", "method": "as §1"}, "[3]": {"test_system": "A549", "conditions": "Homo sapiens, A549; 72 h growth; read-out: Cell growth inhibition IC50/µM", "method": "as §1"}, "[4]": {"test_system": "ACHN", "conditions": "Homo sapiens, ACHN; 72 h growth; read-out: Cell growth inhibition IC50/µM", "method": "as §1"}, "[5]": {"test_system": "ASPC1", "conditions": "Homo sapiens, ASPC1; 72 h growth; read-out: Cell growth inhibition IC50/µM", "method": "as §1"}, "[6]": {"test_system": "BT20", "conditions": "Homo sapiens, BT-20; 72 h growth; read-out: Cell growth inhibition IC50/µM", "method": "as §1"}, "[7]": {"test_system": "CASKI", "conditions": "Homo sapiens, Ca-Ski; 72 h growth; read-out: Cell growth inhibition IC50/µM", "method": "as §1"}, "[8]": {"test_system": "COLO678", "conditions": "Homo sapiens, COLO-678; 72 h growth; read-out: Cell growth inhibition IC50/µM", "method": "as §1"}, "[9]": {"test_system": "HELA", "conditions": "Homo sapiens, HeLa; 72 h growth; read-out: Cell growth inhibition IC50/µM", "method": "as §1"}, "[10]": {"test_system": "IGROV1", "conditions": "Homo sapiens, IGROV-1; 72 h growth; read-out: Cell growth inhibition IC50/µM", "method": "as §1"}, "[11]": {"test_system": "K562", "conditions": "Homo sapiens, K562; 72 h growth; read-out: Cell growth inhibition IC50/µM", "method": "as §1"}, "[12]": {"test_system": "KASUMI1", "conditions": "Homo sapiens, Kasumi 1; 72 h growth; read-out: Cell growth inhibition IC50/µM", "method": "as §1"}, "[13]": {"test_system": "MCF7", "conditions": "Homo sapiens, MCF7; 72 h growth; read-out: Cell growth inhibition IC50/µM", "method": "as §1"}, "[14]": {"test_system": "MDAMB468", "conditions": "Homo sapiens, MDA-MB-468; 72 h growth; read-out: Cell growth inhibition IC50/µM", "method": "as §1"}, "[15]": {"test_system": "MIAPACA2", "conditions": "Homo sapiens, MIA PaCa-2; 72 h growth; read-out: Cell growth inhibition IC50/µM", "method": "as §1"}, "[16]": {"test_system": "NCIH82", "conditions": "Homo sapiens, NCI-H82; 72 h growth; read-out: Cell growth inhibition IC50/µM", "method": "as §1"}, "[17]": {"test_system": "PANC1", "conditions": "Homo sapiens, PANC-1; 72 h growth; read-out: Cell growth inhibition IC50/µM", "method": "as §1"}, "[18]": {"test_system": "PBMC", "conditions": "PBMC; 72 h growth; read-out: Cell growth inhibition IC50/µM", "method": "as §1"}, "[19]": {"test_system": "PC3", "conditions": "Homo sapiens, PC-3; 72 h growth; read-out: Cell growth inhibition IC50/µM", "method": "as §1"}, "[20]": {"test_system": "SF268", "conditions": "Homo sapiens, SF-268; 72 h growth; read-out: Cell growth inhibition IC50/µM", "method": "as §1"}, "[21]": {"test_system": "SKHEP1", "conditions": "Homo sapiens, SK-HEP1; 72 h growth; read-out: Cell growth inhibition IC50/µM", "method": "as §1"}, "[22]": {"test_system": "SUDHL10", "conditions": "Homo sapiens, SU-DHL10; 72 h growth; read-out: Cell growth inhibition IC50/µM", "method": "as §1"}, "[23]": {"test_system": "SUDHL6", "conditions": "Homo sapiens, SU-DHL-6; 72 h growth; read-out: Cell growth inhibition IC50/µM", "method": "as §1"}}}
{"smiles": "CCOC(=O)Cn1c2c(c3ccccc31)C[C@@H]1C[C@H]2C(OC)CN1C(=O)c1cccnc1SC", "note": "(single isomer, unassigned; (+)) [(+)-5a, Glupin]", "values": [{"measurement": "IC50", "setting": "[1]", "value": 5.57, "unit": "µM"}, {"measurement": "IC50", "setting": "[2]", "value": 0.248, "unit": "µM"}, {"measurement": "IC50", "setting": "[3]", "value": 0.32, "unit": "µM"}, {"measurement": "IC50", "setting": "[4]", "value": "> 30", "unit": "µM"}, {"measurement": "IC50", "setting": "[5]", "value": 0.695, "unit": "µM"}, {"measurement": "IC50", "setting": "[6]", "value": "> 30", "unit": "µM"}, {"measurement": "IC50", "setting": "[7]", "value": 0.433, "unit": "µM"}, {"measurement": "IC50", "setting": "[8]", "value": "> 30", "unit": "µM"}, {"measurement": "IC50", "setting": "[9]", "value": 1.25, "unit": "µM"}, {"measurement": "IC50", "setting": "[10]", "value": 1.76, "unit": "µM"}, {"measurement": "IC50", "setting": "[11]", "value": 0.137, "unit": "µM"}, {"measurement": "IC50", "setting": "[12]", "value": "> 30", "unit": "µM"}, {"measurement": "IC50", "setting": "[13]", "value": "> 30", "unit": "µM"}, {"measurement": "IC50", "setting": "[14]", "value": 4.32, "unit": "µM"}, {"measurement": "IC50", "setting": "[15]", "value": 0.061, "unit": "µM"}, {"measurement": "IC50", "setting": "[16]", "value": 1.17, "unit": "µM"}, {"measurement": "IC50", "setting": "[17]", "value": 0.706, "unit": "µM"}, {"measurement": "IC50", "setting": "[18]", "value": "> 30", "unit": "µM"}, {"measurement": "IC50", "setting": "[19]", "value": 0.827, "unit": "µM"}, {"measurement": "IC50", "setting": "[20]", "value": 0.37, "unit": "µM"}, {"measurement": "IC50", "setting": "[21]", "value": 0.569, "unit": "µM"}, {"measurement": "IC50", "setting": "[22]", "value": 0.219, "unit": "µM"}, {"measurement": "IC50", "setting": "[23]", "value": 0.092, "unit": "µM"}]}
